This is an account of results in patent publication US9815854B2, “3-(3H-imidazo[4,5-B]pyridin-2-yl)-1H-pyrazolo[3,4-C]pyridine and therapeutic uses thereof” (Samumed, LLC, priority 2014, dated 2017).

SMILES strings stand for the structures. Bounds are passed on as bounds.

One experiment concerns Wnt activity (Sp5-Luc reporter, TCF/LEF binding sites) in SW480 colon carcinoma cells. The experiment is described as follows: Sp5-Luc Wnt reporter gene screening assay in SW480 colon carcinoma cells. It counts as cell-based, human.
Details: not given
From the text: The screening assay for Wnt activity is described as follows. Reporter cell lines can be generated by stably transducing cancer cell lines (e.g., colon cancer) or primary cells (e.g., IEC-6 intestinal cells) with a lentiviral construct that includes a Wnt-responsive promoter driving expression of the firefly luciferase gene.
SW480 colon carcinoma cells were transduced with a lentiviral vector expressing luciferase with a human Sp5 promoter consisting of a sequence of eight TCF/LEF binding sites. SW480 cells stably expressing the Sp5-Luc reporter gene and a hygromycin resistance gene were selected by treatment with 150 μg/ml of hygroinycin for 7 days. These stably transduced SW480 cells were expanded in cell culture and used for all further screening activities. For Sp5-Luc reporter gene assays, the cells were plated at 10,000 cells/well in 96-well plates with growth medium containing 10% fetal calf serum and incubated overnight at 37° C. and 5% CO2. Each compound was dissolved in DMSO as a 10 mM stock in standard j-vials and used to prepare compound source plates in dose-response format with 3-fold serial dilutions and a 10 mM top concentration. Compound transfer from serially diluted source plates to assay plates containing the cells was accomplished using a pintool (Multimek 96, Beckman equipped with V&P Scientific FP1S50H pins) based liquid handling protocol. This protocol used a slotted pin to transfer 50 nl of compound from a source plate well to an assay plate well containing 50 μl of cells in growth medium. […] Control wells received 50 nl of DMSO treatment for nommlization and calculating IC50 values. The treated cells were incubated at 37° C. and 5% CO2 for an additional forty-two hours. Following incubation, the growth medium was removed and 50 μl of BrightGlo luminescence reagent (Promega) was added to each well of the 96-well assay plates. The plates were placed on an orbital shaker for 5 min and then luminescence was quantified on the Victor3 (Perkin Elmer) plate reader. Readings were normalized to DMSO only treated cells, and normalized activities were utilized for IC50 calculations using the dose-response log (inhibitor) vs. response—variable slope (four parameters) nonlinear regression feature available in GraphPad Prism 5.0 or 6.0.
With `Fc1cccc(-c2ccnc3[nH]c(-c4n[nH]c5cnc(-c6ccncc6)cc45)nc23)c1` [Compound 952, -(7-(3-Fluorophenyl)-3H-imidazo[4,5-b]pyridin-2-yl)-5-(pyridin-4-yl)-1 H-pyrazolo[3,4-c]pyridine], the half-maximal inhibitory concentration (IC50) (usually the midpoint of a concentration-inhibition curve) was greater than 1000 nM. `CC(C)CC(=O)Nc1cncc(-c2cc3c(-c4nc5c(-c6cc(F)cc(OCCN(C)C)c6)ccnc5[nH]4)n[nH]c3cn2)c1` [Compound 1262]: the IC50 is greater than 10000 nM.

The same experiment, now with this note: Homo sapiens.
Compound `CN(C)c1cncc(-c2cc3c(-c4nc5c(-c6cccc(F)c6)ccnc5[nH]4)n[nH]c3cn2)c1` [Compound 7, 5-(3-(7-(3-Fluorophenyl)-3H-imidazo[4,5-b]pyridin-2-yl)-1H-pyrazolo[3,4-c]pyridin-5-yl)-N,N-dimethylpyridin-3-amine] returned a concentration for half-maximal inhibition (IC50) of 85.4 nM.

`CC(C)(C)C(=O)Nc1cncc(-c2cc3c(-c4nc5c(-c6cccc(F)c6)ccnc5[nH]4)n[nH]c3cn2)c1` [Compound 8, N-(5-(3-(7-(3-Fluorophenyl)-3H-imidazo[4,5-b]pyridin-2-yl)-1H-pyrazolo[3,4-c]pyridin-5-yl)pyridin-3-yl)pivalamide] showed a half-inhibitory concentration (IC50) of 155 nM. Compound `CC(C)C(=O)Nc1cncc(-c2cc3c(-c4nc5c(-c6ccccc6F)ccnc5[nH]4)n[nH]c3cn2)c1` [Compound 61, N-(5-(3-(7-(2-Fluorophenyl)-3H-imidazo[4,5-b]pyridin-2-yl)-1H-pyrazolo[3,4-c]pyridin-5-yl)pyridin-3-yl)isobutyramide] gave a half-inhibitory concentration (IC50) of 77.8 nM.

`c1cncc(-c2ccnc3[nH]c(-c4n[nH]c5cnc(-c6cncc(CN7CCCCC7)c6)cc45)nc23)c1` [Compound 93, 5-(5-(Piperidin-1-ylmethyl)pyridin-3-yl)-3-(7-(pyridin-3-yl)-3H-imidazo[4,5-b]pyridin-2-yl)-1H-pyrazolo[3,4-c]pyridine] displayed a half-inhibitory concentration (IC50) greater than 10000 nM.

Compound `CN(C)c1cncc(-c2cc3c(-c4nc5c(N6CCCCC6)ccnc5[nH]4)n[nH]c3cn2)c1` [Compound 163, N,N-Dimethyl-5-(3-(7-(piperidin-1-yl)-3H-imidazo[4,5-b]pyridin-2-yl)-1H-pyrazolo[3,4-c]pyridin-5-yl)pyridin-3-amine] returned a half-maximal inhibitory concentration (IC50) of 1030 nM.

`CC(C)(C)C(=O)Nc1cncc(-c2cc3c(-c4nc5c(-c6ccc(F)s6)ccnc5[nH]4)n[nH]c3cn2)c1` [Compound 346, N-(5-(3-(7-(5-Fluorothiophen-2-yl)-3H-imidazo-[4,5-b]pyridin-2-yl)-1H-pyrazolo[3,4-c]pyridin-5-yl)pyridin-3-yl)pivalamide] displayed an IC50 of 62.1 nM. On the same count and under the same terms, under `Fc1ccc(-c2ccnc3[nH]c(-c4n[nH]c5cnc(-c6cncc(CN7CCCC7)c6)cc45)nc23)s1` [Compound 352, 3-(7-(5-Fluorothiophen-2-yl)-3H-imidazo[4,5-b]pyridin-2-yl)-5-(5-(pyrrolidin-1-ylmethyl)pyridin-3-yl)-1H-pyrazolo[3,4-c]pyridine] stands 156 nM; under `CCNCc1cncc(-c2cc3c(-c4nc5c(-c6cc(F)cc(NCCN(C)C)c6)ccnc5[nH]4)n[nH]c3cn2)c1` [Compound 448, N^1-(3-(2-(5-(5-((Ethylamino)methyl)pyridin-3-yl)-1H-pyrazolo[3,4-c]pyridin-3-yl)-3H-imidazo[4,5-b]pyridin-7-yl)-5-fluorophenyl)-N^2,N^2-dimethylethane-1,2-diamine], greater than 10000 nM. Same read-out and setting: under `CCCCC(=O)Nc1cncc(-c2cc3c(-c4nc5c(-c6cc(F)cc(NCCN(C)C)c6)ccnc5[nH]4)n[nH]c3cn2)c1` [Compound 460] stands 139 nM; under `Fc1cccc(-c2ccnc3[nH]c(-c4n[nH]c5cnc(C6CCNCC6)cc45)nc23)c1` [Compound 937, 3-(7-(3-Fluorophenyl)-3H-imidazo[4,5-b]pyridin-2-yl)-5-(piperidin-4-yl)-1H-pyrazolo[3,4-c]pyridine], 1860 nM. `Fc1cccc(-c2ccnc3[nH]c(-c4n[nH]c5cnc(C6=CCNCC6)cc45)nc23)c1` [Compound 938, 3-(7-(3-Fluorophenyl)-3H-imidazo[4,5-b]pyridin-2-yl)-5-(1,2,3,6-tetrahydropyridin-4-yl)-1H-pyrazolo[3,4-c]pyridine] yielded a concentration for half-maximal inhibition (IC50) greater than 1000 nM.

With `Fc1cccc(-c2ccnc3[nH]c(-c4n[nH]c5cnc(-c6cncc(OC7CCCCC7)c6)cc45)nc23)c1` [Compound 943, 5-(5-(Cyclohexyloxy)pyridin-3-yl)-3-(7-(3-fluorophenyl)-3H-imidazo[4,5-b]pyridin-2-yl)-1H-pyrazolo[3,4-c]pyridine], the half-maximal inhibitory concentration (IC50) turned out to be 950 nM. In turn, `Fc1cccc(-c2ccnc3[nH]c(-c4n[nH]c5cnc(-c6cncc(OC7CCNCC7)c6)cc45)nc23)c1` [Compound 944, 3-(7-(3-Fluorophenyl)-3H-imidazo[4,5-b]pyridin-2-yl)-5-(5-(piperidin-4-yloxy)pyridin-3-yl)-1H-pyrazolo[3,4-c]pyridine] returned an IC50 greater than 10000 nM. With `Fc1cccc(-c2ccnc3[nH]c(-c4n[nH]c5cnc(-c6cncc(OCCN7CCCC7)c6)cc45)nc23)c1` [Compound 946, 3-(7-(3-Fluorophenyl)-3H-imidazo[4,5-b]pyridin-2-yl)-5-(5-(2-(pyrrolidin-1-yl)ethoxy)pyridin-3-yl)-1H-pyrazolo[3,4-c]pyridine], the half-maximal inhibitory concentration (IC50) was greater than 10000 nM. `Fc1cccc(-c2ccnc3[nH]c(-c4n[nH]c5cnc(-c6cncc(OCc7ccccc7)c6)cc45)nc23)c1` [Compound 950, 5-(5-(Benzyloxy)pyridin-3-yl)-3-(7-(3-fluorophenyl)-3H-imidazo[4,5-b]pyridin-2-yl)-1H-pyrazolo[3,4-c]pyridine]: the IC50 was found to be 4430 nM. The compound `O=C(CC1CCCCC1)Nc1cncc(-c2cc3c(-c4nc5c(-c6cccc(F)c6)ccnc5[nH]4)n[nH]c3cn2)c1` [Compound 951, 2-Cyclohexyl-N-(5-(3-(7-(3-fluorophenyl)-3H-imidazo[4,5-b]pyridin-2-yl)-1H-pyrazolo[3,4-c]pyridin-5-yl)pyridin-3-yl)acetamide] returned an IC50 greater than 10000 nM.

Turning to `CC(C)CC(=O)Nc1cncc(-c2cc3c(-c4nc5c(-c6cc(O)cc(F)c6)ccnc5[nH]4)n[nH]c3cn2)c1` [Compound 1350, N-(5-(3-(7-(3-Fluoro-5-hydroxyphenyl)-3H-imidazo[4,5-b]pyridin-2-yl)-1H-pyrazolo[3,4-c]pyridin-5-yl)pyndin-3-yl)-3-methylbutanamide], the half-inhibitory concentration (IC50) is 253 nM. The same measure, in the same setting: under `CN(C)CC(=O)Nc1cncc(-c2cc3c(-c4nc5c(-c6cccc(F)c6)ccnc5[nH]4)n[nH]c3cn2)c1` [Compound 1437, 2-(Dimethylamino)-N-(5-(3-(7-(3-fluorophenyl)-3H-imidazo[4,5-b]pyridin-2-yl)-1H-pyrazolo[3,4-c]pyridin-5-yl)pyridin-3-yl)acetamide] stands 646 nM.

A further experiment relates to primary human fibroblasts derived from IPF patients (LL29 cells). The experiment is described as follows: Inhibition of the fibrotic process in TGF-β1-treated primary human fibroblasts from IPF patients (αSMA staining). It counts as cell-based. Conditions: Fibroblast, 96 h, TGF-β1 20 ng/mL, 4 days, read-out: Inhibition of fibrosis EC50. From the text: The above synthesized compounds were screened using primary human fibroblasts (derived from IPF patients) treated with TGF-β1 to determine their ability to inhibit the fibrotic process.
Human Fibroblast Celt Culture: Primary human fibroblasts derived from IPF patients (LL29 cells) [^1Xiaoqiu Liu, et.al., “Fibrotic Luna Fibroblasts Show Blunted Inhibition by cAMP Due to Deficient cAMP Response Element-Binding Protein Phosphorylation”, Journal of Pharmacology and Experimental Therapeutics (2005), 315(2), 678-687; ^2Watts, K. L., et.al., “RhoA signaling modulates cyclin D1 expression in human lung fibroblasts; implications for idiopathic pulmonary fibrosis”, Respiratory Research (2006), 7(1), 88] were obtained from American Type Culture Collection (ATCC) and expanded in F12 medium supplemented with 15% Fetal Bovine Serum and Penicillin/Streptomycin.
Compound Screening: Each compound was dissolved in DMSO as a 10 mM stock and used to prepare compound source plates. Serial dilution (1:2, 11-point dose-response curves from 10 μM to […]) and compound transfer was performed using the ECHO 550 (Lahcyte, Sunnyvale, Calif.) into 384-well clear bottom assay plates (Greiner Bio-One) with appropriate DMSO backfill fhr a final DMSO concentration of 0.1%. LL29 cells were plated at 1,500 cells/well in 80 μl/well F12 medium supplemented with 1% Fetal Bovine Serum. One hour after addition of the cells. TGF-β1 (Peprotech; 20 ng/mL) was added to the plates to induce fibrosis (ref. 1 and 2 above), Wells treated with TGF-β1 and containing DMSO were used as controls. Cells were incubated at 37° C. and 5% CO2 for 4 days. Following incubation for 4 days, SYTOX green nucleic acid stain (Life Technologies [Thermo Fisher Scientific]) was added to the wells at a final concentration of 1 uM and incubated at room temperature for 30 min. Cells were then fixed using 4% formaldehyde (Electron Microscopy Sciences), washed 3 times with PBS followed by blocking and penneabilization using 3% Bovine Serum Albumin (BSA; Sigma) and 0.3% Triton X-100 (Sigma) in PBS. Cells were then stained with antibody specific to α-smooth muscle actin (αSMA; Abeam) (ref 1 and 2 above) in 3% Bovine Serum Albumin (BSA; Sigma) and 0.3% Triton X-100 (Sigma) in PBS, and incubated overnight at 4° C. Cells were then washed 3 times with PBS, followed by incubation with Alexa Flor-647 conjugated secondary antibody (Life Technologies [Thermo Fisher Scientific]) and DAPI at room temperature for 1 hour, Cells were then washed 3 times with PBS and plates were sealed for imaging. αSMA staining was imaged by excitation at 630 nm and emission at 665 nm and quantified using the Compartmental Analysis program on the CellInsight CX5 (Thermo Scientific). Dead or apoptotic cells were excluded from analysis based on positive SYTOX green staining. % of total cells positive for αSMA were counted in each well and normalized to the average of 11 wells treated with TGF-β1 on the same plate using Dotmatics' Studies Software. The normalized averages (fold change over untreated) of 3 replicate wells for each compound concentration were used to create dose-responses curves and EC50 values were calculated using non-linear regression curve fit in the Dotmatics' Studies Software. The EC50 values are reported.
Regarding `CN(C)c1cncc(-c2cc3c(-c4nc5c(-c6cccc(F)c6)ccnc5[nH]4)n[nH]c3cn2)c1` [Compound 7, 5-(3-(7-(3-Fluorophenyl)-3H-imidazo[4,5-b]pyridin-2-yl)-1H-pyrazolo[3,4-c]pyridin-5-yl)-N,N-dimethylpyridin-3-amine], the half-maximal effective concentration (EC50) – broadly, the concentration that produces a half-maximal response – is 406 nM. As for `CC(C)(C)C(=O)Nc1cncc(-c2cc3c(-c4nc5c(-c6cccc(F)c6)ccnc5[nH]4)n[nH]c3cn2)c1` [Compound 8, N-(5-(3-(7-(3-Fluorophenyl)-3H-imidazo[4,5-b]pyridin-2-yl)-1H-pyrazolo[3,4-c]pyridin-5-yl)pyridin-3-yl)pivalamide], the EC50 is 75 nM.
